The record followed here is PubChem BioAssay (NCI).

SMILES strings stand for the structures. Several values for one entry are separate records, joined by “and”; a condition that tells them apart may be missing. Identical values can stand only once.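 The compound was tested at five concentrations on cells cultured in 96-well plates, with a 48-hour exposure period. GI50 is the concentration that inhibits growth by half. Definition used: TGI = concentration required for complete inhibition of growth.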

Holding throughout (assay): NCI-60 cell line screen, 48 h
The subject of assay [1] is CAKI-1 renal.
Assay [2] deals with OVCAR-8 ovarian.
For assay [3], the system named is COLO 205 colon.
For assay [4], the system named is SK-OV-3 ovarian.
Assay [5] deals with SNB-75 CNS.
Assay [6] has as its system SF-295 CNS.
In assay [7] the test system is HL-60(TB) leukemia.
Assay [8] deals with LOX IMVI melanoma.
The subject of assay [9] is HOP-92 NSCLC.
Assay [10] deals with SR leukemia.

As to `C[C@@H]1C=C(CCCCCCCCCCC[C@H](O)[C@@H]2CCC(=O)O2)C(=O)O1`, the GI50 was 35.8 µM in assay [1]; 23.4 µM in assay [2]; 19.1 µM in assay [3]; 51.7 µM in assay [4]; over 100 µM in [5]; 19.8 µM in assay [6]. Also, the TGI in assay [1] was over 100 µM; in [2], 69 µM; in [3], 40.6 µM; in [4], over 100 µM; in assay [5] it was over 100 µM; in assay [6], 48.6 µM.
For `COC(=O)C1CC(C(=O)OC)c2nc3cc(C)ccc3nc21` (stereo not given), the TGI in assay [7], in [1], in assay [8], in assay [2], in assay [3] and in [4] was over 100 µM each time. For the same compound, the TGI in assay [9], in [5] and in [6] was over 100 µM each time.
Regarding `[Cl][Bi]([O]c1ccccn1)[O]c1ccccn1`, the GI50 in [10], in [1], in assay [8], in [2], in assay [3] and in assay [4] was over 100 µM throughout. For the same compound, the GI50 in assay [5] and in assay [6] was over 100 µM each time. Further, the TGI in [10], in assay [1], in assay [8], in [2], in [3] and in assay [4] was over 100 µM throughout. Further, the TGI in [5] and in [6] was over 100 µM throughout.
For the compound `CSc1nc(NC2OCC(OC(C)=O)C(OC(C)=O)C2OC(C)=O)c2c(OC(C)=O)c(C)c(=O)oc2n1` (stereo not given), the TGI in assay [7], in assay [1], in [8], in assay [2], in [3] and in assay [4] was over 100 µM each time. Further, the TGI in [9], in [5] and in [6] was over 100 µM each time.
Take `Oc1ccc(Cc2ccc(O)c3ncccc23)c2cccnc12`: the GI50 is 0.263 µM in assay [7]; 0.341 µM in assay [1]; 0.0402 µM in assay [8]; 0.0477 µM in assay [2]; over 100 µM in assay [3]; 0.214 µM in assay [4]. For the same compound, the GI50 was 0.0114 µM in assay [9], 0.0368 µM in [5] and 0.294 µM in assay [6]. Further, the TGI in assay [7] is over 100 µM; in assay [1], over 100 µM; in assay [8], over 100 µM; in assay [2] it was over 100 µM; in [3], over 100 µM; in assay [4], 0.653 µM. Also, the figures for the TGI in [9], in assay [5] and in assay [6] were 0.0513 µM, over 100 µM and 0.948 µM, respectively.
With `Cc1cccc(-c2nc3c(C(=O)NCCN(C)C)cccc3[nH]2)c1`, the TGI in assay [1] amounted to 10.3 µM; in assay [8], 2 µM; in [2], 7.02 µM; in [3] it was 1.56 µM; in [4], 6.07 µM; in [9], 3.46 µM. Also, the TGI in assay [5] was 3.73 µM; in [6] it was 3.9 µM.
Consider `O=C1c2cccc3cc([N+](=O)[O-])cc(c23)C(=O)N1CCNCCNCCNCCN1C(=O)c2cccc3cc([N+](=O)[O-])cc(c23)C1=O`, for which the TGI was 0.548 µM in assay [1]; 0.512 µM in [2]; 0.341 µM and 0.598 µM in assay [4]; 0.112 µM in [9]; 0.133 µM in assay [5]; 0.422 µM and 0.465 µM in [6]. In [4], the GI50 is 0.0273 µM.
As to `O=S(=O)([O-])c1cccc2cccc(N=Cc3ccccc3[O-])c12.O=S(=O)([O-])c1cccc2cccc(N=Cc3ccccc3[O-])c12.[O]=[U]=[O]`, the GI50 is 55.9 µM in assay [8]; 38.5 µM in [2]; 64.8 µM in [3]; over 100 µM in assay [4]; 30.1 µM in assay [9]; 23.3 µM in [5]. The GI50 in assay [6] was 67.5 µM. The TGI in assay [8] is over 100 µM; in [2], over 100 µM; in assay [3], over 100 µM; in assay [4], over 100 µM; in assay [9], 89.6 µM; in [5], 57.9 µM. The compound further registered a TGI in assay [6] of over 100 µM.
On to `N#CC(C(=O)/C(=N/N)C(C#N)c1ccc(Cl)cc1)c1ccc(Cl)cc1` (stereo not given), for which the TGI in assay [7], in [8], in [2], in [3], in assay [9] and in assay [5] was over 100 µM each time. Besides, the TGI in [6] is over 100 µM.
Consider `CCOc1ccc(N=Cc2cccc3cccnc23)cc1`, for which the TGI was 62.2 µM in assay [7]; over 100 µM in [1]; over 100 µM in assay [2]; over 100 µM in assay [3]; over 100 µM in assay [4]; over 100 µM in assay [9]. Also, the TGI in assay [5] and in [6] was over 100 µM throughout.
Take `CC(CN(CP(=O)([O-])[O-])CP(=O)([O-])[O-])N(CP(=O)([O-])[O-])CP(=O)([O-])[O-].N.N.[Pt+2]` (stereo not given): the GI50 in assay [7], in [1], in assay [8], in assay [2], in assay [3] and in [4] was over 100 µM in each case. The GI50 in assay [5] and in [6] was over 100 µM each time. The TGI in [7], in assay [1], in [8], in [2], in assay [3] and in assay [4] was over 100 µM throughout. The TGI in assay [5] and in assay [6] was over 100 µM in each case.
For `CCOP(=O)(OCC)C(NC(c1ccccc1)c1ccccc1)c1ccccc1` (stereo not given), the GI50 was 10.4 µM in assay [1]; 14 µM in assay [8]; 16.3 µM in assay [2]; 24.3 µM in assay [4]; 15.6 µM in [9]; 21.7 µM in assay [5]. Moreover, the GI50 in assay [6] is 2.05 µM. The TGI in assay [1] is 22.2 µM; in assay [8], 28.5 µM; in assay [2], 33.6 µM; in assay [4] it was 52 µM; in [9], 31.9 µM; in [5] it was 45.3 µM. The same compound returned a TGI in [6] of 14.8 µM.
As for `COc1ccc(C=C2C(=O)OC(C)(C)OC2=O)cc1OC`, the TGI in assay [1], in assay [2], in [3], in assay [4], in assay [5] and in assay [6] was over 100 µM in each case.
For the compound `O=c1c2ccccc2c2ccccc2c(=O)n1-c1cc2c3ccccc3ccc2c2ccccc12`, the TGI in [1], in assay [8], in [2], in assay [3], in assay [4] and in [9] was over 100 µM in each case. The TGI in assay [5] and in assay [6] was over 100 µM throughout.
For `O=C1C=C[C@@]23CC1C(O)C[C@H]2C=Cc1ccccc13` (stereo not given in full), the TGI in assay [7], in assay [1], in assay [8], in assay [2], in assay [3] and in assay [4] was over 100 µM throughout. The TGI in assay [9], in assay [5] and in assay [6] was over 100 µM in each case.
`C/C(=N/S(=O)(=O)c1ccc(Cl)c(Cl)c1)OCC(C)(C)C`: the TGI in [7], in [1], in [8], in assay [2], in assay [3] and in [4] was over 100 µM each time. Besides, the TGI in [9], in assay [5] and in [6] was over 100 µM each time.
For `N#CC(=S)Nc1cccc(Cl)c1`, the TGI is 70.4 µM in assay [7]; over 100 µM in assay [1]; over 100 µM in [8]; over 100 µM in assay [2]; over 100 µM in assay [3]; 87.9 µM in assay [4]. In addition, the TGI in assay [9] was over 100 µM; in assay [5], 75.9 µM; in [6], over 100 µM.
For the compound `CC12CCC3C(CC=C4CC(O)CCC43C)C1C/C(=C\N1CCCC1)C2=O` (stereo not given), the GI50 in [7] is 75.3 µM; in assay [1], 61.2 µM; in assay [8] it was over 100 µM; in assay [2] it was over 100 µM; in assay [3], over 100 µM; in assay [4] it was over 100 µM. The GI50 in assay [9] was 4.52 µM; in assay [5] it was 41.5 µM; in [6] it was 57.2 µM. In addition, the TGI in [7], in [1], in [8], in assay [2], in assay [3] and in [4] was over 100 µM in each case. Further, the TGI in assay [9] was 83.7 µM; in [5], over 100 µM; in assay [6], over 100 µM.
For `CCCCCCCCCCC/C(=N/O)c1ccc(O)c2ncccc12`, the TGI in assay [1] was 51.6 µM; in [8], 13.6 µM; in assay [2], 16.2 µM; in assay [3] it was over 100 µM; in [9], 5.47 µM; in [5], 13.2 µM. The TGI in [6] was 6.78 µM.
Consider `N[C@@H](Cc1c[nH]c2ccccc12)C(=O)NC1CCN(C(=O)c2c[nH]c3ccccc23)CC1`, for which the GI50 in assay [7] is over 100 µM; in [1] it was over 100 µM; in assay [8], 96.1 µM; in assay [2], over 100 µM; in assay [3] it was 47.9 µM; in [4], 90.5 µM. The GI50 in assay [9] was 71 µM; in assay [5], 37.4 µM; in assay [6], over 100 µM. For the same compound, the TGI in assay [7], in assay [1], in [8], in assay [2], in [3] and in [4] was over 100 µM throughout. Further, the TGI in assay [9], in assay [5] and in [6] was over 100 µM in each case.
For `CCN1C2=NC(=O)N(C)C(=O)C2(Cl)C(C(SC)S(=O)(=O)c2ccc(C)cc2)c2ccccc21` (stereo not given), the TGI in [7] was 19.7 µM; in [1] it was over 100 µM; in assay [8], over 100 µM; in assay [2] it was 50.4 µM; in assay [3], 99.2 µM; in assay [4], over 100 µM. Besides, the TGI in assay [9] is 71.3 µM; in [5] it was 53.7 µM; in assay [6], over 100 µM.
On to `CC(=O)Nc1ccc(/C=C/[N+](=O)[O-])cc1`, for which the TGI in assay [7] worked out at 6.44 µM; in assay [1], 2.78 µM; in [8], 3.91 µM; in assay [2] it was 15.4 µM; in assay [3], 7.28 µM; in assay [4], 24.1 µM. Moreover, the figures for the TGI in assay [9], in assay [5] and in assay [6] were 17.4 µM, 7.64 µM and 14 µM, respectively.
Take `CCCC1c2c(ccc3ccccc23)Oc2ccc3ccccc3c21`: the TGI in assay [1], in assay [8], in assay [2], in assay [3], in assay [4] and in assay [9] was over 100 µM in each case. For the same compound, the figures for the TGI in [5] and in [6] were over 100 µM and 88.6 µM, respectively.
For the compound `COC(=O)C1=C(C)N(NC(N)=O)C2(N)N(NC(N)=O)C(C)=C(C(=O)OC)C12C(=O)OC` (stereo not given), the TGI in [7], in assay [1], in [8], in [2], in assay [3] and in assay [4] was over 100 µM throughout. The values for the TGI in [9] and in [6] were over 100 µM and over 10 µM, respectively.
For `OCCCCC#Cc1ccccc1C#Cc1ccccc1`, the GI50 in assay [1] was 14.7 µM; in [2] it was 24.5 µM; in [3] it was 12.9 µM; in assay [4], 10.7 µM; in assay [9], 9.55 µM; in assay [5] it was 16 µM. Also, in assay [6], the GI50 is 7.65 µM. The TGI in assay [1] came to 29.1 µM; in [2] it was 59.5 µM; in [3] it was 36.3 µM; in assay [4], 26.7 µM; in assay [9] it was 22.6 µM; in assay [5], 42.1 µM. In addition, in assay [6], the TGI stood at 22.6 µM.
